In ChEMBL document CHEMBL1147440, “Pyrazino[1,2-a]indoles as novel high-affinity and selective imidazoline I(2) receptor ligands” (Bioorg Med Chem Lett, 2004) one finds Ki and IC50 data, which are given here for eleven compounds.

Some results are limits rather than exact numbers.

Experiment [1] in a line: Displacement of [3H]2-BFI from imidazoline receptor I-2. The arrangement: species or system Rattus norvegicus. On the technique in general: Loss of bound radioactivity is the signal in a displacement assay; it reports binding, not function.
Experiment [2] deals with T1, Adrenergic receptor alpha-2 (Rattus norvegicus, UniProt P22086+P19328+P22909).
T1 sequence (P22086 whole entry): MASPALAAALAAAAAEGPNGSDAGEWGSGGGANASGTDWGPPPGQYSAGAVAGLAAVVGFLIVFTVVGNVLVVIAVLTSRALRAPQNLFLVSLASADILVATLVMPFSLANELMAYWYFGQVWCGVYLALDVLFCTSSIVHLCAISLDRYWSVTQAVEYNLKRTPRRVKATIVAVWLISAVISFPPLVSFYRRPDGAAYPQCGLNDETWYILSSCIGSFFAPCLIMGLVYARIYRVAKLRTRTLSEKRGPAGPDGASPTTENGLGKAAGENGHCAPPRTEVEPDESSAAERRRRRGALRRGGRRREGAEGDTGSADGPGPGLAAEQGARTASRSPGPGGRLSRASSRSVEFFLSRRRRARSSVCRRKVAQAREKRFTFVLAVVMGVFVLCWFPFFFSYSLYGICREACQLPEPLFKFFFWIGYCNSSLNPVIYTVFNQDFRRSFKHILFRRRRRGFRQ
T1 sequence (P19328 whole entry): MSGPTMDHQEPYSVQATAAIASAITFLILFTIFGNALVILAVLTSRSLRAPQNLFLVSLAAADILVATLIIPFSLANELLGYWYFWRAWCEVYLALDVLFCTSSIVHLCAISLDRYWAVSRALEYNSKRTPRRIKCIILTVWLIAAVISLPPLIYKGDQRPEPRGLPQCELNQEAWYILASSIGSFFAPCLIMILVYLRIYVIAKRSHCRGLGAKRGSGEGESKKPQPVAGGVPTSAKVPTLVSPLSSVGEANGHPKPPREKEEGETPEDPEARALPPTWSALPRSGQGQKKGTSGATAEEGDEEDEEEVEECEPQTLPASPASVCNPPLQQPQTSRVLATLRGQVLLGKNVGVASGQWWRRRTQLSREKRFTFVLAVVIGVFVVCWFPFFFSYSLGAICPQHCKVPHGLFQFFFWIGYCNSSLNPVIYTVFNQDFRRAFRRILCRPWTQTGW
T1 sequence (P22909 whole entry): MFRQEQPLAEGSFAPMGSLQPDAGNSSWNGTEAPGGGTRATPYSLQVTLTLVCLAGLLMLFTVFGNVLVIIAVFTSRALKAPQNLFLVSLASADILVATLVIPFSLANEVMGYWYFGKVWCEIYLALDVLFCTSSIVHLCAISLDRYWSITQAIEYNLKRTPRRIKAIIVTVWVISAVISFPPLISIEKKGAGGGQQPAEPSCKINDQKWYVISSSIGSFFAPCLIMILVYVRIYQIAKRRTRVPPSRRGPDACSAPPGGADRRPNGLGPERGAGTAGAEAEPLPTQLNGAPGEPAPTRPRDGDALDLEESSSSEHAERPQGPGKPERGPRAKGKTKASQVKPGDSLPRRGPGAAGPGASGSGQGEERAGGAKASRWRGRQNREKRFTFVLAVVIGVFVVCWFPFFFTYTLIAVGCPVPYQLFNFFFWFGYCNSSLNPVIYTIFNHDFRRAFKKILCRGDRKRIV
The experiment in a line: Displacement of [3H]RX-821002 from alpha-2 adrenergic receptor. The format is protein assay.

Experiment [3] has as its target 5-hydroxytryptamine receptor 2A (Rattus norvegicus, UniProt P14842). In words: Binding affinity for 5-hydroxytryptamine 2A serotonin receptor.

Chain of 5-hydroxytryptamine receptor 2A (P14842 whole entry): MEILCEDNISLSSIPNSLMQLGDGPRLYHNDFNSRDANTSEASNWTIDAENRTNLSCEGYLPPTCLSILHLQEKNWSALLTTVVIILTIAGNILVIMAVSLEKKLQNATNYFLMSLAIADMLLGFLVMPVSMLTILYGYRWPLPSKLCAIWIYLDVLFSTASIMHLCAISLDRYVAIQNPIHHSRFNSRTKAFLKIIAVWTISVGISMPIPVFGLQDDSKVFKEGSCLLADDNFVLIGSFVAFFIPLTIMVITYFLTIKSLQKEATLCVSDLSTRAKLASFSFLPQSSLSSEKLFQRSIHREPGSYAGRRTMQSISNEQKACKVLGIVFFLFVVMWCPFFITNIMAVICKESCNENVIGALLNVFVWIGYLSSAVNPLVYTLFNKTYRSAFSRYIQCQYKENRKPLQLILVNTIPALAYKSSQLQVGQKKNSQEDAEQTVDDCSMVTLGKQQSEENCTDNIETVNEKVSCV

A word on the Ki: it is a dissociation constant, usually derived from enzyme kinetics or from competition with a known ligand. Low values mean higher affinity, high ones lower affinity. For the compound `c1ccc2c(c1)nc1n2CCNC1`, the inhibition constant Ki was 6790 nM in experiment [1] and 13400 nM in experiment [2].

For `COc1ccc2c3c([nH]c2c1)C=NCC3` [CGS-19281A], the affinity in experiment [1], expressed as Ki, was 18 nM.

In the case of `C1=NCCc2c1[nH]c1ccccc21`, the inhibition constant (Ki) in experiment [1] was determined as 7.3 nM.

For `COc1ccc2[nH]c3c(c2c1)CCN=C3`, the Ki in experiment [1] was 480 nM.

With `c1ccc2c(c1)cc1n2CCNC1`, the Ki is 6.5 nM in experiment [1] and 516 nM in experiment [2].

As usually defined, the IC50 is the concentration at which inhibition is half-maximal. A higher IC50 goes with weaker potency in that assay. As to `COc1ccc2c(c1)cc1n2CCNC1`, the IC50 in experiment [1] worked out at 8280 nM. The values for the Ki in experiment [1], in experiment [2] and in experiment [3] were 6.2 nM, 9550 nM and 9930 nM, respectively.

Consider `c1ccc2c3c([nH]c2c1)C1=NCCN1CC3`, for which the Ki in experiment [1] came to 9910 nM; in experiment [2] it was 1600 nM.

Regarding `COc1ccc2cc3n(c2c1)CCNC3`, the Ki is 250 nM in experiment [1] and 4510 nM in experiment [2].

On to `c1ccc2oc(C3=NCCN3)cc2c1`, for which the Ki in experiment [1] is under 10 nM.

Regarding `c1ccc2c3c([nH]c2c1)CNCC3` [TRYPTOLINE], the results for the Ki in experiment [1] and in experiment [2] were 9.4 nM and 1600 nM, respectively.

`COc1ccc2[nH]c3c(c2c1)CCNC3` showed a Ki in experiment [1] of 1640 nM.
